Laboratory results as given in US20070026080A1, “Manufacturing process for tigecycline” (Wyeth, priority 2005, published 2007).

Assay: Strength and degradation profile of tigecycline 20 mg/mL bulk solutions by reversed phase HPLC (effect of temperature, time, pH, dissolved oxygen; Runs A to O)
Type: physicochemical
Settings: 20 mg/mL
Protocol: The contents of the sample vials are dissolved in diluent. The sample solution is diluted, if necessary, and chromatographed on a reversed phase column using gradient elution. Impurities are determined by comparing the impurity peak areas in the sample preparation chromatogram to the average area of tigecycline peaks in the standard preparation chromatograms obtained concomitantly.
Chromatographic Column—Length about 15 cm, inside diameter about 4.6 mm, packed with Inertsil ODS2, 5 μm size particles or equivalent.
Detector—Ultraviolet spectrophotometric detector capable of operating at 248 nm with a sensitivity of about 0.5 absorbance units full scale.
The results of additional studies to investigate the effect of processing parameters such as temperature, time, and dissolved oxygen content on the purity profile of tigecycline solutions using the following materials, methods and procedures are presented in Tables A to O.
The experiments were run in plastic glove bags under normal laboratory light conditions. Plastic glove boxes will be used to control the headspace of the beakers. The batch size was 200 mL. • 1. Prepare the glove bag with a mixture of nitrogen and air to achieve an oxygen level in the solution as per the design. • 2. Place the jacketed beaker on the magnetic stirrer. Connect it to the cooler. Set the cooler to the desired set point. • 3. Add 200 mL of SWFI in to the beaker. Allow equilibrating. Measure the temperature and oxygen content. When it reaches the desired condition, add accurately weighed API and mix until dissolved. If necessary use spatula to aid dissolution. For pH adjustments, use 4 mL of either 0.1N NaOH or 0.1N HCl and 196 mL of WFI for manufacture. • 4. After complete dissolution, Transfer about 5.5 mL of Solution in vials and stopper them. These vials will be stoppered at the appropriate headspace conditions. Place the vials in appropriate temperature conditions. • 5. Sample the vials at 1, 4, 8, 10, 12 and 24 hours. Send the samples for analysis. Freeze the 10, 12 and 24 samples at −20° C. for analysis the following day. • 6. Measure pH and record color of the solution at each time point. Results
The 1-hour samples were taken directly from the beakers. Samples for later time points were collected in stoppered vials processed in the atmosphere of the bag in order to simulate the headspace conditions then placed in water baths or refrigerator to maintain there respective temperature conditions. This was done to maintain safety in the lab. Disposable plastic glove bags require constant flow of a mixture of nitrogen and air to maintain headspace oxygen level that will result in the desired dissolved oxygen (DO) content in the sample. The pH of samples was measured at each sample points.
Strength and degradation profile was analyzed by HPLC as described above. […] Degradation was slightly higher at higher temperature condition.

[1] = Run #I, 5° C., pH 7.9, Oxygen 1.0 mg/L, hours 1,4,8,10,12,24 at r6-r11, 24 h
[2] = Run #I, 5° C., pH 7.9, Oxygen 1.0 mg/L, hours 1,4,8,10,12,24 at r17-r22
[3] = Run #I, 5° C., pH 7.9, Oxygen 1.0 mg/L, hours 1,4,8,10,12,24 at r17-r22, 1 h
[4] = Run #I, 5° C., pH 7.9, Oxygen 1.0 mg/L, hours 1,4,8,10,12,24 at r17-r22, 4 h
[5] = Run #I, 5° C., pH 7.9, Oxygen 1.0 mg/L, hours 1,4,8,10,12,24 at r17-r22, 8 h
[6] = Run #I, 5° C., pH 7.9, Oxygen 1.0 mg/L, hours 1,4,8,10,12,24 at r17-r22, 10 h
[7] = Run #I, 5° C., pH 7.9, Oxygen 1.0 mg/L, hours 1,4,8,10,12,24 at r17-r22, 24 h
[8] = Run #J, 8° C., Oxygen = 1.0 mg/mL, hours 1,4,8,12,24 at r6-r10, 1 hours
[9] = Run #J, 8° C., Oxygen = 1.0 mg/mL, hours 1,4,8,12,24 at r6-r10, 4 hours
[10] = Run #J, 8° C., Oxygen = 1.0 mg/mL, hours 1,4,8,12,24 at r6-r10, 8 hours
[11] = Run #J, 8° C., Oxygen = 1.0 mg/mL, hours 1,4,8,12,24 at r6-r10, 12 hours
[12] = Run #J, 8° C., Oxygen = 1.0 mg/mL, hours 1,4,8,12,24 at r6-r10, 24 hours
[13] = Run #J, 8° C., hours 1,4,8,12,24 at r6-r10, 1 hours
[14] = Run #J, 8° C., hours 1,4,8,12,24 at r6-r10, 4 hours
[15] = Run #J, 8° C., hours 1,4,8,12,24 at r6-r10, 8 hours
[16] = Run #J, 8° C., hours 1,4,8,12,24 at r6-r10, 12 hours
[17] = Run #J, 8° C., hours 1,4,8,12,24 at r6-r10, 24 hours
[18] = Run #K, 2° C., pH 8.2, Oxygen 0.1 mg/L, hours 1,4,8,10,12,24 at r6-r11
[19] = Run #K, 2° C., pH 8.2, Oxygen 0.1 mg/L, hours 1,4,8,10,12,24 at r6-r11, after 1 hours
[20] = Run #K, 2° C., pH 8.2, Oxygen 0.1 mg/L, hours 1,4,8,10,12,24 at r6-r11, after 4 hours
[21] = Run #K, 2° C., pH 8.2, Oxygen 0.1 mg/L, hours 1,4,8,10,12,24 at r6-r11, after 8 hours
[22] = Run #K, 2° C., pH 8.2, Oxygen 0.1 mg/L, hours 1,4,8,10,12,24 at r6-r11, after 10 hours
[23] = Run #K, 2° C., pH 8.2, Oxygen 0.1 mg/L, hours 1,4,8,10,12,24 at r6-r11, after 12 hours

CN(C)c1cc(NC(=O)CNC(C)(C)C)c(O)c2c1C[C@H]1C[C@H]3[C@H](N(C)C)C(O)=C(C(N)=O)C(=O)[C@@]3(O)C(O)=C1C2=O [Tigecycline]
Strength (Run #I, 5° C., pH 7.9, Oxygen 1.0 mg/L, hours 1,4,8,10,12,24 at r6-r11, 12 h): 19.151 mg/mL
RRT 0.58 [1]: 0.10%
RRT 0.74 Epimer [1]: 0.23%
Strength [1]: 19.242 mg/mL
RRT 0.78 MW = 557 [2]: BRL (BRL means below reporting limit (meaning less than 0.05% of tigecycline peak))
RRT 1.12 [2]: BRL (BRL means below reporting limit (meaning less than 0.05% of tigecycline peak))
RRT 1.64 Mino [3]: 0.13%
RRT 1.85 MW = 597 [3]: 0.06%
Total [3]: 0.54%
RRT 1.64 Mino [4]: 0.10%
RRT 1.85 MW = 597 [4]: 0.09%
RRT 1.64 Mino [5]: 0.09%
RRT 1.85 MW = 597 [5]: 0.08%
Total [5]: 0.53%
RRT 1.64 Mino [6]: 0.08%
RRT 1.85 MW = 597 [6]: 0.10%
Total [6]: 0.98%
Total (Run #I, 5° C., pH 7.9, Oxygen 1.0 mg/L, hours 1,4,8,10,12,24 at r17-r22, 12 h): 0.71%
RRT 1.64 Mino [7]: 0.11%
Total [7]: 0.96%
RRT 1.67 MW = 556 [8]: 0.09%
Strength [8]: 19.515 mg/mL
RRT 1.67 MW = 556 [9]: 0.17%
Strength [9]: 19.469 mg/mL
RRT 1.67 MW = 556 [10]: 0.15%
Strength [10]: 19.323 mg/mL
RRT 1.67 MW = 556 [11]: 0.19%
Strength [11]: 19.140 mg/mL
RRT 1.67 MW = 556 [12]: 0.21%
Strength [12]: 19.152 mg/mL
RRT 0.58 [13]: 0.06%
RRT 0.74 Epimer [13]: 0.20%
RRT 1.45 [13]: 0.08%
RRT 1.85 MW = 597 [13]: 0.09%
Total [13]: 0.62%
RRT 0.74 Epimer [14]: 0.22%
RRT 1.45 [14]: 0.06%
RRT 1.64 Mino [14]: 0.09%
RRT 1.85 MW = 597 [14]: 0.08%
Total [14]: 0.90%
RRT 1.45 [15]: 0.07%
Total [15]: 1.00%
RRT 0.74 Epimer [16]: 0.24%
RRT 1.64 Mino [16]: 0.10%
RRT 1.85 MW = 597 [16]: 0.11%
Total [16]: 1.17%
RRT 0.58 [17]: 0.08%
RRT 0.74 Epimer [17]: 0.28%
RRT 1.45 [17]: 0.05%
RRT 1.64 Mino [17]: 0.11%
RRT 1.85 MW = 597 [17]: 0.10%
Total [17]: 1.76%
RRT 0.12 MW = 633 [18]: BRL (BRL means below reporting limit (meaning less than 0.05% of tigecycline peak))
RRT 0.23 MW = 572 [18]: BRL (BRL means below reporting limit (meaning less than 0.05% of tigecycline peak))
RRT 0.50 MW = 601 [18]: BRL (BRL means below reporting limit (meaning less than 0.05% of tigecycline peak))
RRT 0.55 MW = 583 [18]: BRL (BRL means below reporting limit (meaning less than 0.05% of tigecycline peak))
RRT 0.64 9-Amino [18]: BRL (BRL means below reporting limit (meaning less than 0.05% of tigecycline peak))
RRT 0.78 MW = 557 [18]: BRL (BRL means below reporting limit (meaning less than 0.05% of tigecycline peak))
RRT 1.12 [18]: BRL (BRL means below reporting limit (meaning less than 0.05% of tigecycline peak))
RRT 1.58 [18]: BRL (BRL means below reporting limit (meaning less than 0.05% of tigecycline peak))
RRT 1.67 MW = 556 [18]: BRL (BRL means below reporting limit (meaning less than 0.05% of tigecycline peak))
RRT 0.74 Epimer [19]: 0.16%
RRT 1.64 Mino [19]: 0.12%
Strength [19]: 19.187 mg/mL
Total [19]: 0.51%
RRT 0.74 Epimer [20]: 0.18%
RRT 1.64 Mino [20]: 0.13%
Strength [20]: 19.324 mg/mL
Total [20]: 0.61%
RRT 0.58 [21]: 0.07%
Strength [21]: 19.127 mg/mL
Total [21]: 0.63%
RRT 0.74 Epimer [22]: 0.19%
RRT 1.64 Mino [22]: 0.15%
RRT 1.85 MW = 597 [22]: 0.10%
Strength [22]: 20.357 mg/mL
Total [22]: 0.59%
RRT 0.58 [23]: 0.08%
RRT 0.74 Epimer [23]: 0.22%
RRT 1.45 [23]: 0.09%
RRT 1.64 Mino [23]: 0.10%
RRT 1.85 MW = 597 [23]: 0.09%
Strength [23]: 19.956 mg/mL
Total [23]: 0.56%
